Laboratory results: patent publication US20100216661A1, “Diagnostic Assay” (priority 2007, published 2010)

Legend:
[1] = system: anti-RhD monoclonal antibody T22 (LHM 169/80); experiment: Biopanning of phage-peptide libraries with anti-RhD T22; type: binding, Human
Excerpt: (§1) Three different phage libraries from New England Biolabs. (Ph.D. 7 and Ph.D. 12 displaying linear 7- and 12-mer peptides, respectively and Ph.D. C7C displaying 7-mer peptides constrained by a disulphide bridge at their termini) and a linear 15mer library (kindly provided by Prof. George P. Smith, University of Missouri) were used in biopanning experiments with 10 different monoclonal antibodies and a polyclonal preparation (Table 1).
(§2) For each target antibody/library combination, a separate well of a 96-well Immulon 4 flat-bottomed ELISA plate (Thermo Labsystems) was coated with 5 μg of antibody in 150 μl ELISA coating buffer (15 mM Na2CO3, 35 mM NaHCO3, pH9.6). Plates were sealed and incubated at 4° C. overnight. Unbound antibody was discarded and 350 μl of blocking buffer (0.1M NaHCO3/3% skimmed milk powder) was added to each well. Plates were sealed and incubated for 1 hour at 4° C. The blocking buffer was removed and the wells were washed six times with 300 μl TBS/0.1% Tween 20. Approximately 2×10^11 plaque forming units (pfu) in 100 μl TBS/0.1% Tween 20 were added to each well and the plates were incubated at room temperature for 1 hour. Wells were washed ten times with 300 μl TBS/0.1% Tween 20. Bound phage were eluted by incubation with 100 μl of 0.2M glycine-HCl/BSA, pH2.2 (1 mg/ml) for 10 minutes, then neutralised with 15 μl of 1M Tris-HCL (pH9.1). An aliquot of the Round 1 eluate was removed and titred. The remainder of the eluted phage were amplified by infection of E. coli ER2538 cells for 4.5 hours at 37° C. The cultures were centrifuged for 10 minutes at 10,000 rpm at 4° C. The supernatants were recovered, ⅙ volume PEG/NaCl (20% polyethylene glycol 8000; 2.5M NaCl) added, then incubated overnight at 4° C. The PEG-precipitated phage were centrifuged at 10,000 rpm for 15 minutes at 4° C. The supernatant was removed and the phage pellet resuspended in 200 μl TBS. Two further rounds of panning were undertaken and approximately 2×10^11 pfu of the Round 2 or Round 3 amplified eluates were used as input phage. Round 3 eluates were titrated but not amplified. Individual plaques were amplified and subjected to PCR amplification, prior to DNA sequence analysis. The specificity of peptide-antibody binding was subsequently determined using both phage ELISA and SPOTs techniques.

[2] = system: anti-RhD monoclonal antibody T10 (LHM76/55); experiment: Biopanning of phage-peptide libraries with anti-RhD T10; type: binding, Human; settings: for Panning Antibody (antibody that selected the phage-peptide in biopanning): biopanning of phage-peptide libraries with anti-RhD monoclonal T10
Excerpt: as §1, §2

[3] = system: polyclonal anti-RhD preparation (Human Anti-D Ig); experiment: Biopanning of phage-peptide libraries with polyclonal anti-RhD; type: binding; settings: for Panning Antibody (antibody that selected the phage-peptide in biopanning): biopanning of phage-peptide libraries with polyclonal anti-RhD preparation
Excerpt: as §1, §2

[4] = phage-peptide libraries, three rounds of panning

| Substance | Panning Antibody (antibody that selected the phage-peptide in biopanning) [2] | Panning Antibody (antibody that selected the phage-peptide in biopanning) [3] | further results |
| --- | --- | --- | --- |
| RhD 39 (AFLGHSHWFPSVASR) | – | – | Panning Antibody (antibody that selected the phage-peptide in biopanning) [1]: RhD T22 |
| RhD 44 (HWKHPWGAWDTL) | RhD T10 | – | – |
| RhD 40 (QLLCFPICRPEPPVS) | – | – | Panning Antibody (antibody that selected the phage-peptide in biopanning) [1]: RhD T22 |
| RhD 69 (VHWRWWDQRVPM) | RhD T10 | – | – |
| RhD 31 (TITDCYPICVSP) | – | – | Panning Antibody (antibody that selected the phage-peptide in biopanning) [1]: RhD T22 |
| RhD 97 (FHWHLQPQLWSY) | – | RhD | – |
| RhD 101 (FHRHYYPWALIQ) | – | RhD | – |
| RhD 19 (WVHLQSP) | – | – | Panning Antibody (antibody that selected the phage-peptide in biopanning) [1]: RhD T22 |
| RhD 73 (FHENWPS) | RhD T10 | – | – |
| RhD 68 (LDTYWYREHFRR) | RhD T10 | – | – |
| RhD 30 (HLSSRHLFVPLS) | – | – | Panning Antibody (antibody that selected the phage-peptide in biopanning) [1]: RhD T22 |
| RhD 16 (WGLWFSN) | – | – | Panning Antibody (antibody that selected the phage-peptide in biopanning) [1]: RhD T22 |
| Rh0 37 (WHWSSLSWPALP) | – | – | Panning Antibody (antibody that selected the phage-peptide in biopanning) [1]: RhD T22 |
| RhD 67 (VWAVSLPWYRYP) | RhD T10 | – | – |
| RhD 63 (RNALHSLRTLSSSWV) | RhD T10 | – | – |
| RhD 23 (DSRWLLP) | – | – | Panning Antibody (antibody that selected the phage-peptide in biopanning) [1]: RhD T22 |
| RhD 25 (FHWSWYTPSRPS) | – | – | Panning Antibody (antibody that selected the phage-peptide in biopanning) [1]: RhD T22 |
| RhD 56 (VPPWVSVRTGPG) | RhD T10 | – | – |
| RhD 71 (VPWFRAP) | RhD T10 | – | – |
| RhD52: RhD peptide mimotope, Table 4 (HSSWYIQHFPPL) | – | – | Selection by biopanning with anti-RhD monoclonal antibody T10 [2, 4]: selected; Selection by biopanning with polyclonal anti-RhD preparation [3, 4]: selected |
| Rh0 43 (YYQRAPY) | RhD T10 | – | – |

| Substance | Panning Antibody (antibody that selected the phage-peptide in biopanning) [2] | Panning Antibody (antibody that selected the phage-peptide in biopanning) [3] | further results |
| --- | --- | --- | --- |
| RhD 57 (TLVYQPPWYRIA) | RhD T10 | – | – |
| RhD 75 (TQWYQIA) | RhD T10 | – | – |
| RhD 26 (HSSWWLALAKPT) | – | – | Panning Antibody (antibody that selected the phage-peptide in biopanning) [1]: RhD T22 |
| RhD 50 (WHWTFYTPLEST) | RhD T10 | – | – |
| RhD 18 (WGLWSTP) | – | – | Panning Antibody (antibody that selected the phage-peptide in biopanning) [1]: RhD T22 |
| RhD 54 (QHKTSITGHLEP) | RhD T10 | – | – |
| RhD 92 (LHWWPTYGNNGM) | – | RhD | – |
| RhD 58 (FHQRLWWPTHTP) | RhD T10 | – | – |
| RhD 76 (LPWFQLP) | RhD T10 | – | – |
| RhD 98 (LHREWIYPYLIS) | – | RhD | – |
| RhD 41 (WYTKAPY) | RhD T10 | – | – |
| RhD 82 (FHANWPQSARDV) | – | RhD | – |
| RhD 72 (WHPPQPS) | RhD T10 | – | – |
| RhD 80 (IPWYKIT) | RhD T10 | – | – |
| RhD 74 (FWWQVPA) | RhD T10 | – | – |
| RhD 88 (AGYQIGMPNPLL) | – | RhD | – |
| RhD 96 (SHWWTSILATPS) | – | RhD | – |
| RhD 53 (STYLNGPTGVDL) | RhD T10 | – | – |
| RhD 60 (HAAFEPRGDVRHTLL) | RhD T10 | – | – |
| RhD 65 (RPHLLDWELNPV) | RhD T10 | – | – |
| RhD 87 (FHSNWPSLIRAR) | – | RhD | – |

| Substance | Panning Antibody (antibody that selected the phage-peptide in biopanning) [2] | Panning Antibody (antibody that selected the phage-peptide in biopanning) [3] | further results |
| --- | --- | --- | --- |
| RhD 34 (WNCFPICHASGL) | – | – | Panning Antibody (antibody that selected the phage-peptide in biopanning) [1]: RhD T22 |
| RhD 29 (FHWPRSWVTWQS) | – | – | Panning Antibody (antibody that selected the phage-peptide in biopanning) [1]: RhD T22 |
| RhD 70 (LPWYQLT) | RhD T10 | – | – |
| RhD 49 (SMSQPKSQVNAH) | RhD T10 | – | – |
| RhD 104 (WPHQVHKHIYRQ) | – | RhD | – |
| RhD 66 (FHWRWSTFPEYP) | RhD T10 | – | – |
| RhD 84 (FHENWSTRPTTR) | – | RhD | – |
| RhD 103 (SVSVGMKPSPRP) | – | RhD | – |
| RhD 27 (WHWYPRFSPPSH) | – | – | Panning Antibody (antibody that selected the phage-peptide in biopanning) [1]: RhD T22 |
| RhD 94 (FHWRLPYPLPSS) | – | RhD | – |
| RhD 46 (WHKNWWPPSTPN) | RhD T10 | – | – |
| RhD 79 (LPWYRH) | RhD T10 | – | – |
| RhD 85 (FHSVYPWREAEG) | – | RhD | – |
| RhD 20 (WGLWWHT) | – | – | Panning Antibody (antibody that selected the phage-peptide in biopanning) [1]: RhD T22 |
| RhD 86 (FHSNWPSAYTAR) | – | RhD | – |
| RhD 83 (FHSDWPGQTFTW) | – | RhD | – |
| RhD 90 (SPTSFRQVFGFY) | – | RhD | – |
| RhD 38 (GNWLFNSCYPLCFPL) | – | – | Panning Antibody (antibody that selected the phage-peptide in biopanning) [1]: RhD T22 |
| RhD 93 (FHRPYYWPPTPL) | – | RhD | – |
| RhD 32 (WPCHPICLSPRG) | – | – | Panning Antibody (antibody that selected the phage-peptide in biopanning) [1]: RhD T22 |
| RhD 105 (APPYPGPLPLSL) | – | RhD | – |

| Substance | Panning Antibody (antibody that selected the phage-peptide in biopanning) [2] | Panning Antibody (antibody that selected the phage-peptide in biopanning) [3] | further results |
| --- | --- | --- | --- |
| RhD 95 (IHWWVKSPPPGS) | – | RhD | – |
| RhD 77 (TPLSKST) | RhD T10 | – | – |
| RhD 81 (FHSTWPWREAEG) | – | RhD | – |
| RhD 45 (WHWQWTPWSIQP) | RhD T10 | – | – |
| RhD 51 (ESLSTDTYAILL) | RhD T10 | – | – |
| RhD 52 (HSSWYIQHFPPL) | RhD T10 | – | – |
| RhD 64 (FHRHWWPPTLST) | RhD T10 | – | – |
| RhD 42 (WYHKAPY) | RhD T10 | – | – |
| RhD 55 (FHRWPTWPLPSP) | RhD T10 | – | – |
| RhD 100 (ATWSHHLSSAGL) | – | RhD | – |
| RhD 78 (LPWYATP) | RhD T10 | – | – |
| RhD 59 (WHWRLYSANTP) | RhD T10 | – | – |
| RhD 61 (SIWDLPLQYRGFGTS) | RhD T10 | – | – |
| RhD 48 (QSHYRHISPAQV) | RhD T10 | – | – |
| RhD 62 (LWRLRGGSFPVISHG) | RhD T10 | – | – |
| RhD 47 (SMSSMLLAAQTV) | RhD T10 | – | – |
| RhD 91 (ALPELSSLPESAR) | – | RhD | – |
| RhD 102 (HSLKHTQMSYSS) | – | RhD | – |
| RhD 89 (FHWRYPLPLPGQ) | – | RhD | – |
| RhD 99 (GQKTHNPFHLHP) | – | RhD | – |
